Assay results from patent US20260224658A1, “PRODUCTS AND METHODS FOR THE DIAGNOSIS AND TREATMENT OF P[…]” (priority 2023, published 2026).
In brackets after ≈: the same amount, converted by molar mass.

Key:
Assay type in all cases: cell-based, Pseudomonas aeruginosa
MPAO1-ΔmutS [1] = assay: MIC, microbroth dilution assay; conditions: for MIC: Pseudomonas aeruginosa, read-out: MIC, average of triplicates
Procedure: (§1) MIC experiments were performed using biological triplicates.

MPAO1-ΔmutL = assay: MIC, microbroth dilution assay; conditions: Pseudomonas aeruginosa, read-out: MIC, average of triplicates
Procedure: as §1

PAO1 = assay: microbe, parasite or virus in culture; conditions: Pseudomonas aeruginosa; strain PAO1; read-out: MIC, average of triplicates
Procedure: as §1

MPAO1 [2] = assay: microbe, parasite or virus in culture; conditions: Pseudomonas aeruginosa; strain MPAO1; read-out: MIC, average of triplicates
Procedure: as §1

MPAO1-ΔmutS [3] = assay: In vitro adaptive evolution (serial passaging) with MIC determination; conditions: for MIC: Pseudomonas aeruginosa
Procedure: (§2) MICs were determined via microbroth dilution assay in 96-well culture plates with 2-fold serial dilutions of tested antibiotic in Mueller-Hinton (cation-adjusted) broth, inoculated with 50 μL of 2.75×10^5 CFU/mL of each bacterial strain and incubated at 37° C., 200 rpm for 24 hours. MIC experiments were performed using biological triplicates.
(§3) Serial passaging of bacterial strains was performed in 96-well culture plates with 2-fold serial dilutions of antibiotic in MH broth, inoculated with 50 μL 2.75×10^5 CFU/mL of each strain and incubated at 37° C., 200 rpm for 24 hours. […] The bacteria were then serially passaged in the same antibiotic and MIC determined for all antibiotics (aztreonam, ciprofloxacin, D-CONGA, D-CONGA-Q7, polymyxin B). See Antimicrobial susceptibility testing section. The bacteria were serially passaged a total of 10 times.
(§4) All resistance acquisition data was analyzed in units of fold-change to normalize for differences in starting MIC across strains. Fold-change in MIC data for all strains and treatment groups was natural log-transformed and simple linear regression was performed considering each replicate fold-change value as an individual point. Slope, standard error of slope, and total number of values of each treatment group of interest were analyzed via unpaired t-test (ΔmutS vs WT) or ordinary one-way ANOVA (cross-resistance acquisition of ΔmutS+AB vs −AB vs WT), and α-values were corrected for multiple comparisons using the Bonferroni method. Differences in estimated mutation rate across treatment groups were determined via ordinary one-way ANOVA (Brown-Forsythe test). For all statistical tests, p<0.05 was considered significant. All figures were created and statistical tests were done using GraphPad Prism 9.3.1.

MPAO1 [4] = assay: as above; conditions: for MIC: Pseudomonas aeruginosa
Procedure: as §2, §3, §4

[H]/N=C(/N)N[C@H]1[C@H](O)[C@@H](O)[C@H](O[C@@H]2O[C@@H](C)[C@](O)(C=O)[C@H]2O[C@@H]2O[C@@H](CO)[C@H](O)[C@@H](O)[C@@H]2NC)[C@@H](N/C(N)=N\[H])[C@@H]1O [Streptomycin]
MIC (MPAO1-ΔmutS [1]): 32 mg/L (≈ 55 µM)
MIC (MPAO1-ΔmutL): 43 mg/L (≈ 73.9 µM)
MIC (PAO1): 21 mg/L (≈ 36.1 µM)
MIC (MPAO1 [2]): 8 mg/L (≈ 13.8 µM)

O=C(O)c1cn(C2CC2)c2cc(N3CCNCC3)c(F)cc2c1=O [Ciprofloxacin]
MIC (MPAO1-ΔmutS [1]): 1 mg/L (≈ 3.02 µM)
MIC (MPAO1-ΔmutL): 0.3 mg/L (≈ 0.905 µM)
MIC (PAO1): 0.25 mg/L (≈ 0.754 µM)
MIC (MPAO1 [2]): 0.5 mg/L (≈ 1.51 µM)
MIC (MPAO1-ΔmutS [3]; read-out: Average MIC at end point, MPAO1-ΔmutS evolved in AZ): 4 mg/L (≈ 12.1 µM)
MIC (MPAO1-ΔmutS [3]; read-out: Average MIC at end point, MPAO1-ΔmutS evolved in AZ + COL): 2 mg/L
MIC (MPAO1-ΔmutS [3]; read-out: Average MIC at end point, MPAO1-ΔmutS evolved in AZ + D-CONGA): 0.8 mg/L
MIC (MPAO1-ΔmutS [3]; read-out: Average MIC at end point, MPAO1-ΔmutS evolved in AZ + D-CONGA-Q7): 0.7 mg/L
MIC (MPAO1-ΔmutS [3]; read-out: Average MIC at end point, MPAO1-ΔmutS evolved in Chl): 8 mg/L (≈ 24.1 µM)
MIC (MPAO1 [4]; read-out: Average MIC at end point, MPAO1 evolved in AZ): 0.25 mg/L (≈ 0.754 µM)
MIC (MPAO1 [4]; read-out: Average MIC at end point, MPAO1 evolved in AZ + COL): 2 mg/L
MIC (MPAO1 [4]; read-out: Average MIC at end point, MPAO1 evolved in AZ + D-CONGA): 0.7 mg/L
MIC (MPAO1 [4]; read-out: Average MIC at end point, MPAO1 evolved in AZ + D-CONGA-Q7): 0.8 mg/L
MIC (MPAO1 [4]; read-out: Average MIC at end point, MPAO1 evolved in COL): 2 mg/L (≈ 6.04 µM)
MIC (MPAO1 [4]; read-out: Average MIC at end point, MPAO1 evolved in Chl): 1 mg/L (≈ 3.02 µM)
MIC (MPAO1 [4]; read-out: Average MIC at end point, MPAO1 evolved in Chl + Str): 2 mg/L
MIC (MPAO1 [4]; read-out: Average MIC at end point, MPAO1 evolved in D-CONGA): 1 mg/L (≈ 3.02 µM)
MIC (MPAO1 [4]; read-out: Average MIC at end point, MPAO1 evolved in D-CONGA-Q7): 0.75 mg/L (≈ 2.26 µM)
MIC (MPAO1 [4]; read-out: Average MIC at end point, MPAO1 passaged with No Antibiotic (Table 4)): 2 mg/L (≈ 6.04 µM)
MIC (MPAO1 [4]; read-out: Average MIC at end point, MPAO1 passaged with No Antibiotic (Table 8)): 0.8 mg/L (≈ 2.41 µM)

O=C(N[C@H](CO)[C@H](O)c1ccc([N+](=O)[O-])cc1)C(Cl)Cl [Chloramphenicol]
MIC (MPAO1-ΔmutS [1]): ≥ 400 mg/L
susceptibility of the strains before evolution (summary of Table 3) (MPAO1-ΔmutS [1]; wild type and mutS-deficient MPAO1): anticipated intrinsic resistance
MIC (MPAO1-ΔmutL): 400 mg/L (≈ 1240 µM)
MIC (PAO1): 400 mg/L (≈ 1240 µM)
MIC (MPAO1 [2]): ≥ 400 mg/L
cross-resistance to antibiotics induced by treatment (MPAO1-ΔmutS [3]; MPAO1-ΔmutS evolved in the named drug): induced cross-resistance to antibiotics in a different class such as ciprofloxacin
cross-resistance induced by treatment (MPAO1 [4]; antibiotic-treated wild type MPAO1): no cross resistance developed
